The IC50 is the concentration at which inhibition is half-maximal. A lower IC50 goes with greater potency in that assay.

This assay has as its system pSTAT6 (pY641-STAT6) in PBMC. Kind of assay: MSD-pSTAT-PBMC Assay (pSTAT6). It is filed as cell-based. The settings on record: compound 3 hrs, then 1 ng/mL IL-4 for 10 min. An excerpt:
Cryopreserved Peripheral Blood Mononuclear Cells (PBMC) are from AllCells. Recombinant Human […] and IL-6 are from Peprotech. Mouse monoclonal anti-STAT3 antibody, rabbit monoclonal anti-pY705-STAT3 antibody, rabbit monoclonal Anti-pY641-STAT6 antibody, and lysis buffer are from Cell Signaling Technology (CST). Mouse monoclonal anti-STAT6 antibody is from BioLegend. Assay plates, blocker, and anti-rabbit secondary antibody are from Meso Scale Discovery (MSD).
Cryopreserved PBMCs were thawed out and allowed to recover overnight in IMDM+10% heat-inactivated FBS prior to plating 50,000 (STAT3) or 25,000 (STAT6) cells per well in 96-well U-bottom tissue culture plates. Cells were treated with compound for 3 hrs, then stimulated with 10 ng/mL IL-6 (STAT3) or 1 ng/mL IL-4 (STAT6) for 10 min. Cells were then spun down and washed with ice-cold PBS prior to lysing the cell pellet with 1× lysis buffer (CST) with 1× HALT protease and phosphatase inhibitor cocktail (Thermo). Lysates were transferred to and incubated overnight at 4° C. with shaking in QuickPlex 96-well high bind assay plates (MSD) pre-coated overnight with 30 μL per well of 0.6 μg/mL mouse monoclonal anti-STAT3 antibody (STAT3) or 2 μg/mL mouse monoclonal anti-STAT6 antibody (STAT6) in 1×PBS, and pre-blocked for 1 hour with 3% Blocker-A (MSD). Captured protein in the assay plates were then washed and probed with 25 μL per well of 0.25 μg/ml rabbit monoclonal anti-pY705-STAT3 antibody (STAT3) or 0.18 μg/ml rabbit monoclonal Anti-pY641-STAT6 antibody (STAT6) in 1% Blocker-A for 1 hour at room temperature with shaking, then washed and probed with 25 ul per well of 1 ug/ml Sulfo-TAG Labeled Goat Anti-Rabbit Antibody (MSD) in 1% Blocker-A for 1 hour at room temperature with shaking. Assay plates were then washed and 150 μL of 1× Read Buffer-T (MSD) was added to each well prior to reading on an SQ120 MSD Plate Reader. Assay signal from each sample was subtracted by the signal from unstimulated control wells and normalized to DMSO control wells, IC50 values were calculated using Graph Pad Prism Dose-Response Nonlinear Regression with variable slope. For both pSTAT3 and pSTAT6 A=≤100 nM; B=>100-1000 nM; C=>1000-3000 nM; and D=>3 μM.

`CCCC(=O)SCCOP(=O)(OCCSC(=O)CCC)C(F)(F)c1ccc2sc(C(=O)NC3CC4CC4CC4CCC(C(=O)N5CC(C#N)C(c6cccc(OCCCCOc7ccc(C8CCC(=O)NC8=O)cc7)c6)C5)N4C3=O)cc2c1` [Compound 4, S,S′-(((((2-(((3S,6S,7aS,8aR,9aR)-3-((rel-3S,4R)-3-cyano-4-(3-(4-(4-(2,6-dioxopiperidin-3-yl)phenoxy)butoxy)phenyl)pyrrolidine-1-carbonyl)-5-oxodecahydro-1H-cyclopropa[d]pyrrolo[1,2-a]azocin-6-yl)carbamoyl)benzo[b]thiophen-5-yl)difluoromethyl)phosphoryl)bis(oxy))bis(ethane-2,1-diyl)) dibutanethioate] registered an IC50 of 100 to 1000 nM.

Take `CCCC(=O)SCCOP(=O)(OCCSC(=O)CCC)C(F)(F)c1ccc2sc(C(=O)NC3CC4CC4CC4CCC(C(=O)N5CC(c6ccn(CCCCCCC#Cc7cccc8c7CN(C7CCC(=O)NC7=O)C8=O)c(=O)c6)CC56CC6)N4C3=O)cc2c1` [Compound 6, S,S′-(((((2-(((3S,6S,7aS,8aR,9aR)-3-((6R)-6-(1-(8-(2-(2,6-dioxopiperidin-3-yl)-1-oxoisoindolin-4-yl)oct-7-yn-1-yl)-2-oxo-1,2-dihydropyridin-4-yl)-4-azaspiro[2.4]heptane-4-carbonyl)-5-oxodecahydro-1H-cyclopropa[d]pyrrolo[1,2-a]azocin-6-yl)carbamoyl)benzo[b]thiophen-5-yl)difluoromethyl)phosphoryl)bis(oxy))bis(ethane-2,1-diyl)) dibutanethioate]: the IC50 is under 100 nM. The value for `CCCC(=O)SCCOP(=O)(OCCSC(=O)CCC)C(F)(F)c1ccc2sc(C(=O)NC3CC4CC4CC4CCC(C(=O)N5CC(C#N)C(c6cccc(OCCCCCC#Cc7cccc8c7CN(C7CCC(=O)NC7=O)C8=O)c6)C5)N4C3=O)cc2c1` [Compound 8, S,S′-(((((2-(((3S,6S,7aS,8aR,9aR)-3-((rel-3S,4R)-3-cyano-4-(3-((7-(2-(2,6-dioxopiperidin-3-yl)-1-oxoisoindolin-4-yl)hept-6-yn-1-yl)oxy)phenyl)pyrrolidine-1-carbonyl)-5-oxodecahydro-1H-cyclopropa[d]pyrrolo[1,2-a]azocin-6-yl)carbamoyl)benzo[b]thiophen-5-yl)difluoromethyl)phosphoryl)bis(oxy))bis(ethane-2,1-diyl)) dibutanethioate] was under 100 nM; that for `CCCC(=O)SCCOP(=O)(OCCSC(=O)CCC)C(F)(F)c1ccc2sc(C(=O)NC3CC4CC4CC4CCC(C(=O)N5CC(c6ccn(CCCCCOc7ccc(C8CCC(=O)NC8=O)cc7)c(=O)c6)CC56CC6)N4C3=O)cc2c1` [Compound 9, S,S′-(((((2-(((3S,6S,7aS,8aR,9aR)-3-((6R)-6-(1-(5-(4-(2,6-dioxopiperidin-3-yl)phenoxy)pentyl)-2-oxo-1,2-dihydropyridin-4-yl)-4-azaspiro[2.4]heptane-4-carbonyl)-5-oxodecahydro-1H-cyclopropa[d]pyrrolo[1,2-a]azocin-6-yl)carbamoyl)benzo[b]thiophen-5-yl)difluoromethyl)phosphoryl)bis(oxy))bis(ethane-2,1-diyl)) dibutanethioate] was under 100 nM. Regarding `CCCC(=O)SCCOP(=O)(OCCSC(=O)CCC)C(F)(F)c1ccc2sc(C(=O)NC3CC4CC4CC4CCC(C(=O)N5CC(C#N)C(c6cccc(N7CCN(c8ccc9c(c8)[nH]c(=O)n9C8CCC(=O)NC8=O)CC7)c6)C5)N4C3=O)cc2c1` [Compound 14, S,S′-(((((2-(((3S,6S,7aS,8aR,9aR)-3-((rel-3S,4R)-3-cyano-4-(3-(4-(1-(2,6-dioxopiperidin-3-yl)-2-oxo-2,3-dihydro-1H-benzo[d]imidazol-5-yl)piperazin-1-yl)phenyl)pyrrolidine-1-carbonyl)-5-oxodecahydro-1H-cyclopropa[d]pyrrolo[1,2-a]azocin-6-yl)carbamoyl)benzo[b]thiophen-5-yl)difluoromethyl)phosphoryl)bis(oxy))bis(ethane-2,1-diyl)) dibutanethioate], the IC50 was under 100 nM. The value for `CCCC(=O)SCCOP(=O)(OCCSC(=O)CCC)C(F)(F)c1ccc2sc(C(=O)NC3CC4CC4CC4CCC(C(=O)N5CC(C#N)C(c6cccc(OCCOCCOc7cccc8c7CN(C7CCC(=O)NC7=O)C8=O)c6)C5)N4C3=O)cc2c1` [Compound 16, S,S′-(((((2-(((3S,6S,7aS,8aR,9aR)-3-((rel-3S,4R)-3-cyano-4-(3-(2-(2-((2-(2,6-dioxopiperidin-3-yl)-1-oxoisoindolin-4-yl)oxy)ethoxy)ethoxy)phenyl)pyrrolidine-1-carbonyl)-5-oxodecahydro-1H-cyclopropa[d]pyrrolo[1,2-a]azocin-6-yl)carbamoyl)benzo[b]thiophen-5-yl)difluoromethyl)phosphoryl)bis(oxy))bis(ethane-2,1-diyl)) dibutanethioate] was under 100 nM; that for `CCCC(=O)SCCOP(=O)(OCCSC(=O)CCC)C(F)(F)c1ccc2sc(C(=O)NC3CC4CC4CC4CCC(C(=O)N5CC(c6ccn(CCOCCOCCOc7cccc8c7CN(C7CCC(=O)NC7=O)C8=O)c(=O)c6)CC56CC6)N4C3=O)cc2c1` [Compound 18, S,S′-(((((2-(((3S,6S,7aS,8aR,9aR)-3-((6R)-6-(1-(2-(2-(2-((2-(2,6-dioxopiperidin-3-yl)-1-oxoisoindolin-4-yl)oxy)ethoxy)ethoxy)ethyl)-2-oxo-1,2-dihydropyridin-4-yl)-4-azaspiro[2.4]heptane-4-carbonyl)-5-oxodecahydro-1H-cyclopropa[d]pyrrolo[1,2-a]azocin-6-yl)carbamoyl)benzo[b]thiophen-5-yl)difluoromethyl)phosphoryl)bis(oxy))bis(ethane-2,1-diyl)) dibutanethioate] was 100 to 1000 nM; that for `CCCC(=O)SCCOP(=O)(OCCSC(=O)CCC)C(F)(F)c1ccc2sc(C(=O)NC3CC4CC4CC4CCC(C(=O)N5CC(c6ccn(C7CCN(c8ccc9c(c8)[nH]c(=O)n9C8CCC(=O)NC8=O)CC7)c(=O)c6)CC56CC6)N4C3=O)cc2c1` [Compound 20, S,S′-(((((2-(((3S,6S,7aS,8aR,9aR)-3-((6R)-6-(1-(1-(1-(2,6-dioxopiperidin-3-yl)-2-oxo-2,3-dihydro-1H-benzo[d]imidazol-5-yl)piperidin-4-yl)-2-oxo-1,2-dihydropyridin-4-yl)-4-azaspiro[2.4]heptane-4-carbonyl)-5-oxodecahydro-1H-cyclopropa[d]pyrrolo[1,2-a]azocin-6-yl)carbamoyl)benzo[b]thiophen-5-yl)difluoromethyl)phosphoryl)bis(oxy))bis(ethane-2,1-diyl)) dibutanethioate] was 100 to 1000 nM.
